Laboratory results taken from patent US20060264460A1 (Wyeth, priority 2005, published 2006).

target: T1, human Cot/Tpl2 kinase (Homo sapiens, UniProt P41279); test: Tpl2/Cot kinase assay: GST-MEK1 phosphorylation detected by ELISA (DELFIA Eu); assay type: biochemical; settings: 0.4 nM Tpl2, 35 nM GST-MEK1, 50 uM ATP, 1 h at 30° C.
T1 construct: human Cot/Tpl2 kinase construct encoding residues 30-398; 6His (N); made in house; host or cells: Sf9 insect cells, baculovirus system (BD Biosciences)
In short: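 Substrate phosphorylation (GST-MEK1 Ser217/221) quantified by DELFIA europium ELISA, yielding IC50 values. Reaction: 1 h at 30° C, pH 7.2 MOPS buffer, 50 uM ATP, 35 nM GST-MEK1, 0.4 nM monomeric His-Tpl2 purified from Sf9 cells, compounds at 1% final DMSO; stopped with EDTA.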

T1 sequence (P41279 30-398): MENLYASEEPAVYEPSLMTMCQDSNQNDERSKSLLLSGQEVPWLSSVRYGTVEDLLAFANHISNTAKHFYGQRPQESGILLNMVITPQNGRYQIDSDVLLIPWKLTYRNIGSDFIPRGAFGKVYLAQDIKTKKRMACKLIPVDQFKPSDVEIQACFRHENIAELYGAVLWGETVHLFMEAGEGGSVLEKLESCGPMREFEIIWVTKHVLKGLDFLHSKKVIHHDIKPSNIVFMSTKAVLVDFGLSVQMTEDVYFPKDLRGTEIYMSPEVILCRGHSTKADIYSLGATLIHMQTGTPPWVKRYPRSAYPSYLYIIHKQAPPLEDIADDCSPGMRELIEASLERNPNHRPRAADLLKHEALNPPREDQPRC

Compared with `N#Cc1cnc2ccc(NCc3nccn3CC(=O)N3CCOCC3)cc2c1Nc1ccc(F)c(Cl)c1` [Example 138, 4-(3-chloro-4-fluorophenylamino)-6-((1-(2-morpholino-2-oxoethyl)-1H-imidazol-2-yl)methylamino)quinoline-3-carbonitrile], `Cn1ccnc1CNc1ccc2ncc(C#N)c(Nc3ccc(F)c(Cl)c3)c2c1` [Example 171, 4-(3-chloro-4-fluorophenylamino)-6-((1-methyl-1H-imidazol-2-yl)methylamino)quinoline-3-carbonitrile] is 1.9-fold lower in IC50: 27 nM for the first, 14 nM for the second. The second is the more potent here.

Going from `N#Cc1cnc2ccc(NCC3CCCNC3)cc2c1Nc1ccc(F)c(Cl)c1` (stereo not drawn) [Example 64, 4-(3-Chloro-4-fluoro-phenylamino)-6-[(piperidin-3-ylmethyl)-amino]-quinoline-3-carbonitrile] to `N#Cc1cnc2ccc(NCc3ccco3)cc2c1Nc1ccc(F)c(Cl)c1` [Example 3, 4-(3-Chloro-4-fluoro-phenylamino)-6-[(furan-2-ylmethyl)-amino]-quinoline-3-carbonitrile], the IC50 falls from greater than 40000 nM to 240 nM. The second is the more potent here.

First: N#Cc1cccc(CNc2cc(C(F)(F)F)c3ncc(C#N)c(Nc4ccc(F)c(Cl)c4)c3c2)c1 [Example 232, 4-[(3-chloro-4-fluorophenyl)amino]-6-[(3-cyanobenzyl)amino]-8-(trifluoromethyl)quinoline-3-carbonitrile]
Second: Cc1cc(CNc2cc(C(F)(F)F)c3ncc(C#N)c(Nc4ccc(F)c(Cl)c4)c3c2)oc1C [Example 238, 4-[(3-chloro-4-fluorophenyl)amino]-6-{[(4,5-dimethyl-2-furyl)methyl]amino}-8-(trifluoromethyl)quinoline-3-carbonitrile]
The IC50 of the first is 2.9-fold higher: 24000 nM for the first, 8400 nM for the second. The second is the more potent here.

Going from `CCOCCOc1ccc2c(c1)CN(c1ccc3ncc(C#N)c(Nc4ccc(F)c(Cl)c4)c3c1)C2=N` [Example 60] to `CN(C)Cc1ccc2cc(CNc3ccc4ncc(C#N)c(Nc5ccc(F)c(Cl)c5)c4c3)[nH]c2c1` [Example 154, 4-(3-chloro-4-fluorophenylamino)-6-((6-((dimethylamino)methyl)-1H-indol-2-yl)methylamino)quinoline-3-carbonitrile], the IC50 falls from greater than 40000 nM to 2500 nM.

Compared with `N#Cc1cnc2c(Br)cc(NCc3nn[nH]c3-c3ccccc3C(F)(F)F)cc2c1Nc1ccc(F)c(Cl)c1` [Example 153, 8-bromo-4-[(3-chloro-4-fluorophenyl)amino]-6-[({5-[2-(trifluoromethyl)phenyl]-1H-1,2,3-triazol-4-yl}methyl)amino]quinoline-3-carbonitrile], `N#Cc1cnc2c(Br)cc(NCc3cccnc3)cc2c1Nc1ccc(F)c(Cl)c1` [Example 77, 8-bromo-4-(3-chloro-4-fluorophenylamino)-6-(pyridin-3-ylmethylamino) quinoline-3-carbonitrile] is 2-fold lower in IC50: 220 nM for the first, 110 nM for the second. The second is the more potent here.

First: N#Cc1cnc2ccc(NCc3cccc(OC(F)(F)F)c3)cc2c1Nc1ccc(F)c(Cl)c1 [Example 148, 6-(3-(trifluoromethoxy)benzylamino)-4-(3-chloro-4-fluorophenylamino)quinoline-3-carbonitrile]
Second: N#Cc1cnc2ccc(NCc3ccc(CO)o3)cc2c1Nc1ccc(F)c(Cl)c1 [Example 9, 4-(3-Chloro-4-fluoro-phenylamino)-6-[(5-hydroxymethyl-furan-2-ylmethyl)-amino]-quinoline-3-carbonitrile]
The IC50 of the first is 10-fold higher: 2200 nM for the first, 211 nM for the second. The second is the more potent here.

Going from `CN(C)C(=O)c1cc(NCc2cnc[nH]2)cc2c(Nc3ccc(F)c(Cl)c3)c(C#N)cnc12` [Example 87, 6-((1H-imidazol-5-yl)methylamino)-4-(3-chloro-4-fluorophenylamino)-3-cyano-N,N-dimethylquinoline-8-carboxamide] to `CN(C)CCN1CCN(c2cc3ncc(C#N)c(Nc4ccc(F)c(Cl)c4)c3cc2NCc2cnc[nH]2)CC1` [Example 164, 6-((1H-imidazol-5-yl)methylamino)-4-(3-chloro-4-fluorophenylamino)-7-(4-(2-(dimethylamino)ethyl)piperazin-1-yl)quinoline-3-carbonitrile], the IC50 rises from 130 nM to greater than 40000 nM.

First: COc1ccc(CNc2cc(Cl)c3ncc(C#N)c(Nc4ccc(F)c(Cl)c4)c3c2)cc1OCCN1CCOCC1 [Example 273, 8-Chloro-4-[(3-chloro-4-fluorophenyl)amino]-6-{[4-methoxy-3-(2-morpholin-4-ylethoxy)benzyl]amino}quinoline-3-carbonitrile]
Second: N#Cc1cnc2c(Cl)cc(NCc3cn(CS(=O)(=O)N4CCOCC4)nn3)cc2c1Nc1ccc(F)c(Cl)c1 [Example 224, 8-chloro-4-(3-chloro-4-fluorophenylamino)-6-((1-(morpholinosulfonylmethyl)-1H-1,2,3-triazol-4-yl)methylamino)quinoline-3-carbonitrile]
The IC50 of the first is 3.4-fold lower: 83 nM for the first, 280 nM for the second.

First: CC(C)N1CCCC(n2cc(CNc3cc(Cl)c4ncc(C#N)c(Nc5ccc(F)c(Cl)c5)c4c3)nn2)CC1 (stereo not drawn) [Example 331, 8-chloro-4-[(3-chloro-4-fluorophenyl)amino]-6-({[1-(1-isopropylazepan-4-yl)-1H-1,2,3-triazol-4-yl]methyl}amino)quinoline-3-carbonitrile]
Second: N#Cc1cnc2c(Br)cc(NCCN3CCOCC3)cc2c1Nc1cccc(Cl)c1 [Example 69, 8-bromo-4-(3-chlorophenylamino)-6-(2-morpholinoethylamino)quinoline-3-carbonitrile]
The IC50 of the first is 51-fold lower: 8.2 nM for the first, 420 nM for the second. The first is the more potent here.

Compound `N#Cc1cnc2ccc(NCc3c[nH]c4c(F)c(F)c(F)c(F)c34)cc2c1Nc1ccc(F)c(Cl)c1` [Example 49, 4-(3-Chloro-4-fluoro-phenylamino)-6-[(4,5,6,7-tetrafluoro-1H-indol-3-ylmethyl)-amino]-quinoline-3-carbonitrile] has an IC50 greater than 40000 nM.

same assay, conditions: Table 2; Tpl2/Cot kinase, GST-MEK1 substrate, 50 uM ATP

Going from `N#Cc1cnc2c(Br)cc(NCc3ccc(C(O)(C(F)(F)F)C(F)(F)F)cc3)cc2c1Nc1ccc(F)c(Cl)c1` [Example 428] to `CSCn1cc(CNc2cc(Br)c3ncc(C#N)c(Nc4ccc(F)c(Cl)c4)c3c2)nn1` [Example 530], the IC50 falls from greater than 40000 nM to 12 nM. The second is the more potent here.

`N#Cc1cnc2ccc(NCc3cccc(C(N)=O)c3)cc2c1Nc1ccc(F)c(Cl)c1` [Example 399] and `CS(=O)(=O)c1ccc(CNc2ccc3ncc(C#N)c(Nc4cccc(Cl)c4)c3c2)cc1` [Example 349] are within 1.5-fold of each other in IC50: 460 nM for the first, 370 nM for the second.

First: CSCCn1cc(CNc2cc(Br)c3ncc(C#N)c(Nc4ccc(F)c(Cl)c4)c3c2)nn1 [Example 508]
Second: CN1CCC(CCn2cc(CNc3cc(Br)c4ncc(C#N)c(Nc5ccc(F)c(Cl)c5)c4c3)nn2)CC1 [Example 520]
The IC50 of the first is 1.9-fold higher: 82 nM for the first, 44 nM for the second. The second is the more potent here.

`N#Cc1cnc2c(Br)cc(NCc3cn(CC4CCCNC4)nn3)cc2c1Nc1ccc(F)c(Cl)c1` (stereo not drawn) [Example 545] and `N#Cc1cnc2c(Cl)cc(NCc3cn(CC4CCCNC4)nn3)cc2c1Nc1ccc(F)c(Cl)c1` (stereo not drawn) [Example 546] are within 1.5-fold of each other in IC50: 33 nM for the first, 48 nM for the second.

Going from `N#Cc1cnc2ccc(NC3CCN(Cc4ccccc4)CC3)cc2c1Nc1ccc(F)c(Cl)c1` [Example 378] to `N#Cc1cnc2ccc(N)cc2c1NC1CCN(Cc2ccccc2)CC1` [Example 363], the IC50 rises from 1700 nM to greater than 40000 nM. The first is the more potent here.

Compared with `CN(C)c1cccc(Nc2c(C#N)cnc3ccc(NCCN4CCOCC4)cc23)c1` [Example 354], `N#Cc1cnc2ccc(N)cc2c1Nc1ccc(Cc2ccccc2)cc1` [Example 390] is lower in IC50: greater than 10000 nM for the first, 43 nM for the second.

Going from `CC(C)(C)OC(=O)N1CCC(n2cc(CNc3cc(Br)c4ncc(C#N)c(Nc5ccc(F)c(Cl)c5)c4c3)nn2)CC1` [Example 493] to `N#Cc1cnc2c(C(F)(F)F)cc(N)cc2c1Nc1ccc(F)c(Cl)c1` [Example 394], the IC50 rises from 250 nM to 5800 nM (23-fold).

same assay, conditions: Tpl2/Cot kinase, GST-MEK1 substrate, 50 uM ATP

Going from `CC(C)CN(CCCn1cc(CNc2cc(Cl)c3ncc(C#N)c(Nc4ccc(F)c(Cl)c4)c3c2)nn1)CC(C)C` [Example 913] to `CN(C)CCn1cc(CNc2cc(Br)c3ncc(C#N)c(Nc4ccc(F)c(Cl)c4)c3c2)nn1` [Example 663], the IC50 falls from 45 nM to 24 nM (1.9-fold). The second is the more potent here.

Going from `N#Cc1cnc2c(Cl)cc(NCCNC(=O)Cc3ccccn3)cc2c1Nc1ccc(F)c(Cl)c1` [Example 861] to `N#Cc1cnc2c(Cl)cc(NCCNC(=O)Cc3ccncc3)cc2c1Nc1ccc(F)c(Cl)c1` [Example 863], the IC50 falls from greater than 3000 nM to 1040 nM.

`CC(C)N1CCCC1Cn1cc(CNc2cc(Br)c3ncc(C#N)c(Nc4ccc(F)c(Cl)c4)c3c2)nn1` (stereo not drawn) [Example 878] and `CS(=O)(=O)CCn1cc(CNc2cc(Br)c3ncc(C#N)c(Nc4ccc(F)c(Cl)c4)c3c2)nn1` [Example 694] are within 1.5-fold of each other in IC50: 110 nM for the first, 91 nM for the second.

Going from `N#Cc1ccc(S(=O)(=O)NCCNc2cc(Cl)c3ncc(C#N)c(Nc4ccc(F)c(Cl)c4)c3c2)cc1` [Example 858] to `CC(=O)N1CCC(Nc2cc(Cl)c3ncc(C#N)c(Nc4ccc(F)c(Cl)c4)c3c2)C1` (stereo not drawn) [Example 871], the IC50 falls from 790 nM to 150 nM (5.3-fold).

First: CS(=O)(=O)NCCCn1cc(CN(C=O)c2cc(Cl)c3ncc(C#N)c(Nc4ccc(F)c(Cl)c4)c3c2)nn1 [Example 916]
Second: N#Cc1cnc2c(Cl)cc(NCc3cn(CC(=O)NCCN4CCOCC4)nn3)cc2c1Nc1ccc(F)c(Cl)c1 [Example 820]
The IC50 of the first is 59-fold higher: 830 nM for the first, 14 nM for the second.

same assay, conditions: Tpl2/Cot kinase, GST-MEK1 substrate, 50 uM ATP, 1 h at 30° C.; Table 2

`N#Cc1cnc2c(Cl)cc(N(Cc3cn(C4CCN(C5CCC5)CC4)nn3)C3CCC3)cc2c1Nc1ccc(F)c(Cl)c1` [Example 1029] and `N#Cc1cnc2c(Cl)cc(NCc3cn(C4CCN(CC(F)(F)C(F)F)CC4)nn3)cc2c1Nc1ccc(F)c(Cl)c1` [Example 1018] are within 1.5-fold of each other in IC50: 290 nM for the first, 400 nM for the second.

Going from `Cc1cc(CNc2cc(Cl)c3ncc(C#N)c(Nc4ccc(F)c(Cl)c4)c3c2)no1` [Example 996] to `N#Cc1cnc2c(Cl)cc(NCc3cn(C4CCNCC4)nn3)cc2c1NC1CCOCC1` [Example 987], the IC50 falls from greater than 3000 nM to 1100 nM.

Work on `CN1CCCC1CCn1cc(CNc2cc(Cl)c3ncc(C#N)c(NC4CCCC4)c3c2)nn1` (stereo not drawn) [Example 944] yielded an IC50 greater than 3000 nM.
